SMILES strings stand for the structures.

Consider eight molecules from patent publication US20220370416A1, “COMPOUNDS AND METHODS FOR TARGETED DEGRADATION OF KRAS” (Arvinas Operations, Inc., priority 2020, published 2022).

Assay [1] has as its target T1, HiBit-KRAS^G12C (Homo sapiens, UniProt P01116, G12C). The assay can be described thus: HiBit degradation assay in MiaPaCa-2 HiBit-KRas^G12C cells. The assay is classed as cell-based. The conditions noted are these: 24 hours; for Dmax: MIA PaCa-2, MiaPaCa-2 HiBit-KRas^G12C cells. In outline: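 MiaPaCa-2 cells with CRISPR N-terminal HiBit knock-in on one endogenous KRAS^G12C allele, treated 24 hours at 37° C with compound titrated 10 μM to 20 nM (0.1% or 0.5% DMSO). Lytic HiBit luminescence normalized to DMSO, 4-parameter fit giving DC50 and Dmax; points cytotoxic to […] cells by alamar blue excluded.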
(In general: The HiBiT peptide binds its large partner to form an active luciferase.)

For assay [2], the target named is T1, HiBit-KRAS^G12C. The experiment in a line: HiBit degradation assay in SW1573 HiBit-KRas^G12C cells. The conditions noted are these: 24 hours. Also on record: expressed in transfected cells; host or cells: SW1573 (clone E6), modified pcDNA3.1 vector, TK promoter. The assay is classed as cell-based. A digest of the protocol:
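SW1573 cells stably expressing N-terminally HiBit-tagged KRAS G12C, under the TK promoter, were treated 24 h at 37 °C with 10 μM to 20 nM compound in 0.1% or 0.5% DMSO. Residual HiBit luminescence normalised to DMSO and fitted with a 4-parameter model for DC50 and Dmax. Points with ≥50% viability loss (alamar blue) excluded.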

[3] abbreviates: 0.1% DMSO, maximum degradation, read-out: KRas^G12C-HiBiT (MiaPaCa; 0.1% DMSO) DMax.
Setting [4] is: SW1573, SW1573 HiBit-KRas^G12C, 0.1% DMSO, read-out: KRas^G12C-HiBit (SW1573; 0.1% DMSO) Dmax**.
Where [5] appears, read: SW1573 HiBit-KRas^G12C, 0.1% DMSO, read-out: KRas^G12C-HIBit (SW1573; 0.1% DMSO) DC50*.
[6] abbreviates: 0.5% DMSO, maximum degradation, read-out: KRas^G12C-HiBiT (MiaPaCa; 0.5% DMSO) DMax.
Setting [7] is: SW1573, SW1573 HiBit-KRas^G12C, 0.5% DMSO, read-out: KRas^G12C-HiBiT (SW1573; 0.5% DMSO) Dmax**.
The mark [8] stands for this setting: read-out: KRas^G12C-HiBiT (MiaPaCa; 0.5% DMSO) IC50, MiaPaCa-2 HiBit-KRas^G12C cells, 0.5% DMSO.
Where [9] appears, read: read-out: KRas^G12C-HiBiT (SW1573; 0.5% DMSO) IC50***, SW1573 HiBit-KRas^G12C, 0.5% DMSO.

T1 sequence (P01116 1-186 isoform P01116-2 G12C limits assumed): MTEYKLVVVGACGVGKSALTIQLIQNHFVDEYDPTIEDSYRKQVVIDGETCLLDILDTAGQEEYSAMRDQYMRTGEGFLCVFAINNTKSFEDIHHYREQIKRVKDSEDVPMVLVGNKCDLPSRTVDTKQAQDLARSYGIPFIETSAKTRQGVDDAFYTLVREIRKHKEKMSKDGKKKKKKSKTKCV

Take `C=CC(=O)N1CCN(c2nc(OCCCN3CCC(OCC(=O)N[C@H](C(=O)N4C[C@H](O)C[C@H]4C(=O)N[C@@H](C)c4ccc(-c5scnc5C)cc4)C(C)(C)C)CC3)nc3c(F)c(-c4cc(O)cc5ccccc45)c(Cl)cc23)CC1` [Compound 25, (2S,4R)-1-[(2S)-2-(2-{[1-(3-{[6-chloro-8-fluoro-7-(3-hydroxynaphthalen-1-yl)-4-[4-(prop-2-enoyl)piperazin-1-yl]quinazolin-2-yl]oxy}propyl)piperidin-4-yl]oxy}acetamido)-3,3-dimethylbutanoyl]-4-hydroxy-N-[(1S)-1-[4-(4-methyl-1,3-thiazol-5-yl)phenyl]ethyl]pyrrolidine-2-carboxamide]: the results for the Dmax in assay [1] (setting [3]) and in assay [2] (setting [4]) were below 35% and 35 to 70%, respectively. For the same molecule, in assay [2] (setting [5]), the DC50 fell in the range of 100 to 1000 nM.
For `C=CC(=O)N1CCN(c2nc(O[C@H](C)CN3CCC(OCCOCC(=O)N[C@H](C(=O)N4C[C@@H](O)C[C@H]4C(=O)N[C@@H](C)c4ccc(-c5scnc5C)cc4)C(C)(C)C)CC3)nc3c(F)c(-c4cc(O)cc5ccccc45)c(Cl)cc23)CC1` [Compound 82, (2S,4S)-1-[(2S)-2-{2-[2-({1-[(2R)-2-{[6-chloro-8-fluoro-7-(3-hydroxynaphthalen-1-yl)-4-[4-(prop-2-enoyl)piperazin-1-yl]quinazolin-2-yl]oxy}propyl]piperidin-4-yl}oxy)ethoxy]acetamido}-3,3-dimethylbutanoyl]-4-hydroxy-N-[(1S)-1-[4-(4-methyl-1,3-thiazol-5-yl)phenyl]ethyl]pyrrolidine-2-carboxamide], the Dmax in assay [1] (setting [3]) was 35 to 70%; in assay [1] (setting [6]) it was 35 to 70%; in assay [2] (setting [4]) it was 35 to 70%; in assay [2] (setting [7]), below 35%. Further, in assay [2] (setting [5]), the DC50 was above 1000 nM.
Consider `C=C(F)C(=O)N1CCN(c2nc(OCCN3CCC(C)(COc4cc([C@H](C(=O)N5C[C@H](O)C[C@H]5C(=O)N[C@@H](C)c5ccc(-c6scnc6C)cc5)C(C)C)on4)CC3)nc3c(F)c(-c4cc(O)cc5ccccc45)c(Cl)cc23)C[C@@H]1CC#N` (atropisomer, axis not shown) [Compound 123, (2S,4R)-1-[(2R)-2-[3-({1-[2-({6-chloro-4-[(3S)-3-(cyanomethyl)-4-(2-fluoroprop-2-enoyl)piperazin-1-yl]-8-fluoro-7-(3-hydroxynaphthalen-1-yl)quinazolin-2-yl}oxy)ethyl]-4-methylpiperidin-4-yl}methoxy)-1,2-oxazol-5-yl]-3-methylbutanoyl]-4-hydroxy-N-[(1S)-1-[4-(4-methyl-1,3-thiazol-5-yl)phenyl]ethyl]pyrrolidine-2-carboxamide], for which the Dmax in assay [1] (setting [6]) and in assay [2] (setting [7]) was above 70% each time. For the same molecule, the DC50 in assay [1] (setting [8]) and in assay [2] (setting [9]) was below 100 nM each time.
`C=CC(=O)N1CCN(c2nc(OCCN3CCC(OCCOc4cc([C@H](C(=O)N5C[C@H](O)C[C@H]5C(=O)N[C@@H](C)c5ccc(-c6scnc6C)cc5)C(C)C)on4)CC3)nc3c(F)c(-c4cc(O)cc5ccccc45)c(Cl)cc23)C[C@@H]1CC#N` (atropisomer, axis not shown) [Compound 4, (2S,4R)-1-((R)-2-(3-(2-((1-(2-(((R)-4-((S)-4-acryloyl-3-(cyanomethyl)piperazin-1-yl)-6-chloro-8-fluoro-7-(3-hydroxynaphthalen-1-yl)quinazolin-2-yl)oxy)ethyl)piperidin-4-yl)oxy)ethoxy)isoxazol-5-yl)-3-methylbutanoyl)-4-hydroxy-N-((S)-1-(4-(4-methylthiazol-5-yl)phenyl)ethyl)pyrrolidine-2-carboxamide]: the “KRas^G12C-HiBiT (MiaPaCa; 0.1% DMSO) DMax” value in assay [1] (MiaPaCa-2 HiBit-KRas^G12C cells, 0.1% DMSO, maximum degradation) is “C (C ≤ 35)”. The “KRas^G12C-HiBiT (MiaPaCa; 0.5% DMSO) DMax” value in assay [1] (MiaPaCa-2 HiBit-KRas^G12C cells, 0.5% DMSO, maximum degradation) was “B (35 < B < 70)”. For the same molecule, the “KRas^G12C-HiBit (SW1573; 0.1% DMSO) Dmax**” value in assay [2] (SW1573 HiBit-KRas^G12C, 0.1% DMSO) was “B (35 < B < 70)”. The DC50 in assay [2] (setting [5]) lay within 100 to 1000 nM.
Consider `C=CC(=O)N1CCN(c2nc(O[C@H]3CCC[C@@H]3N3CCC(COCC(=O)N[C@H](C(=O)N4C[C@H](O)C[C@H]4C(=O)N[C@@H](C)c4ccc(-c5scnc5C)cc4)C(C)(C)C)CC3)nc3c(F)c(-c4cc(O)cc5ccccc45)c(Cl)cc23)C[C@@H]1CC#N` [Compound 127, (2S,4R)-1-[(2S)-2-[2-({1-[(1S,2S)-2-({6-chloro-4-[(3S)-3-(cyanomethyl)-4-(prop-2-enoyl)piperazin-1-yl]-8-fluoro-7-(3-hydroxynaphthalen-1-yl)quinazolin-2-yl}oxy)cyclopentyl]piperidin-4-yl}methoxy)acetamido]-3,3-dimethylbutanoyl]-4-hydroxy-N-[(1S)-1-[4-(4-methyl-1,3-thiazol-5-yl)phenyl]ethyl]pyrrolidine-2-carboxamide], for which the Dmax in assay [1] (setting [6]) and in assay [2] (setting [7]) was 35 to 70% each time. In addition, the DC50 in assay [1] (setting [8]) and in assay [2] (setting [9]) was 100 to 1000 nM throughout.
Turning to `C=CC(=O)N1CCN(c2nc(O[C@H](C)CN3CCN(CCCOC4CN(CC(=O)N[C@H](C(=O)N5C[C@H](O)C[C@H]5C(=O)N[C@@H](C)c5ccc(-c6scnc6C)cc5)C(C)(C)C)C4)CC3)nc3c(F)c(-c4cc(O)cc5ccccc45)c(Cl)cc23)CC1` [Compound 57, (2S,4R)-1-[(2S)-2-{2-[3-(3-{4-[(2R)-2-{[6-chloro-8-fluoro-7-(3-hydroxynaphthalen-1-yl)-4-[4-(prop-2-enoyl)piperazin-1-yl]quinazolin-2-yl]oxy}propyl]piperazin-1-yl}propoxy)azetidin-1-yl]acetamido}-3,3-dimethylbutanoyl]-4-hydroxy-N-[(1S)-1-[4-(4-methyl-1,3-thiazol-5-yl)phenyl]ethyl]pyrrolidine-2-carboxamide], the DC50 in assay [1] (read-out: KRas^G12C-HiBiT (MiaPaCa; 0.1% DMSO) IC50, MiaPaCa-2 HiBit-KRas^G12C cells, 0.1% DMSO) was above 1000 nM; in assay [2] (setting [5]), 100 to 1000 nM. Moreover, in assay [2] (SW1573, read-out: KRas^G12C-HiBit (SW1573; 0.1% DMSO) Dmax**, SW1573 HiBit-KRas^G12C, 0.1% DMSO), the Dmax was below 35%.
For the molecule `C=CC(=O)N1CCN(c2nc(OCCN3CCC4(CC3)CN(c3cc([C@H](C(=O)N5C[C@H](O)C[C@H]5C(=O)N[C@@H](C)c5ccc(-c6ccnn6C)cc5)C(C)C)on3)C4)nc3c(F)c(-c4cc(O)cc5ccccc45)c(Cl)cc23)C[C@@H]1CC#N` (atropisomer, axis not shown) [Compound 116, (2S,4R)-1-[(2R)-2-(3-{7-[2-({6-chloro-4-[(3S)-3-(cyanomethyl)-4-(prop-2-enoyl)piperazin-1-yl]-8-fluoro-7-(3-hydroxynaphthalen-1-yl)quinazolin-2-yl}oxy)ethyl]-2,7-diazaspiro[3.5]nonan-2-yl}-1,2-oxazol-5-yl)-3-methylbutanoyl]-4-hydroxy-N-[(1S)-1-[4-(1-methyl-1H-pyrazol-5-yl)phenyl]ethyl]pyrrolidine-2-carboxamide], the Dmax in assay [1] (setting [6]) and in assay [2] (setting [7]) was above 70% each time. Moreover, the DC50 in assay [1] (setting [8]) is 100 to 1000 nM; in assay [2] (setting [9]), below 100 nM.
On to `C=CC(=O)N1CCN(c2nc(O[C@@H]3CCC[C@H]3N3CCC(COCC(=O)N[C@H](C(=O)N4C[C@H](O)C[C@H]4C(=O)N[C@@H](C)c4ccc(-c5scnc5C)cc4)C(C)(C)C)CC3)nc3c(F)c(-c4cc(O)cc5ccccc45)c(Cl)cc23)C[C@@H]1CC#N` [Compound 130, (2S,4R)-1-[(2S)-2-[2-({1-[(1R,2R)-2-({6-chloro-4-[(3S)-3-(cyanomethyl)-4-(prop-2-enoyl)piperazin-1-yl]-8-fluoro-7-(3-hydroxynaphthalen-1-yl)quinazolin-2-yl}oxy)cyclopentyl]piperidin-4-yl}methoxy)acetamido]-3,3-dimethylbutanoyl]-4-hydroxy-N-[(1S)-1-[4-(4-methyl-1,3-thiazol-5-yl)phenyl]ethyl]pyrrolidine-2-carboxamide], for which the Dmax in assay [1] (setting [6]) was 35 to 70%; in assay [2] (setting [7]) it was above 70%. The DC50 in assay [1] (setting [8]) and in assay [2] (setting [9]) was 100 to 1000 nM in each case.
